Test results taken from patent US12252469B2, “Crystalline forms of (E)-N-hydroxy-3-(1-(phenylsulfonyl)indolin-5-yl)acrylamide” (ANBOGEN THERAPEUTICS INC., priority 2023, dated 2025).
Converted amounts (≈) assume the structure as drawn.

Experiments:
Type in all cases: physicochemical
[1] = Competitive slurry, inter-conversion of Type A and Type B; details: t-Butanol and t-Butanol/H2O, RT; water activity calculated from KF by COSMOlogic
[2] = DVS water uptake
Procedure: DVS was measured via a SMS (Surface Measurement Systems) DVS Intrinsic or Intrinsic Plus. The relative humidity at 25° C. were calibrated against deliquescence point of LiCl, Mg(NO3)2 and KCl.

[3] = Approximate solubility of starting material in 20 solvents at RT
Procedure: (peak) with one exotherm at 166.1° C. (peak). Approximate solubility of starting material was determined in 20 solvents at RT. Approximately 2 mg of sample was added into a 3-mL glass vial. Solvents in Table 2 were then added stepwise into the vials until the solids were dissolved visually or a total volume of 2 mL was reached. Solubility results summarized in Table 2 were used to guide the solvent selection in screening experiment design.

water activity at which the form was obtained in competitive slurry [1]: ≥ 0.37 | water uptake (DVS) ([2]; 25° C./80% RH): 0.1396% | form change after DVS test (XRPD) ([2]; after DVS test): no form change | solubility ([3]; THE (as stored; likely THF), organic solvent or mixture, thermodynamic from solid, THE, RT): > 44000 µg/mL | solubility ([3]; organic solvent or mixture, thermodynamic from solid, 1,4-Dioxane, RT): 21000 to 42000 µg/mL (≈ 61 to 122 mM) | solubility ([3]; organic solvent or mixture, thermodynamic from solid, 2-MeTHF, RT): 2000 to 5000 µg/mL (≈ 5.81 to 14.5 mM) | solubility ([3]; organic solvent or mixture, thermodynamic from solid, ACN, RT): 9500 to 19000 µg/mL (≈ 27.6 to 55.2 mM) | solubility ([3]; organic solvent or mixture, thermodynamic from solid, Acetone, RT): > 40000 µg/mL | solubility ([3]; organic solvent or mixture, thermodynamic from solid, CHCl3, RT): < 1000 µg/mL | solubility ([3]; organic solvent or mixture, thermodynamic from solid, DCM, RT): 1000 to 2000 µg/mL (≈ 2.9 to 5.81 mM) | solubility ([3]; organic solvent or mixture, thermodynamic from solid, DMAc, RT): > 40000 µg/mL | solubility ([3]; organic solvent or mixture, thermodynamic from solid, DMSO, RT): > 40000 µg/mL | solubility ([3]; organic solvent or mixture, thermodynamic from solid, EtOAc, RT): 2000 to 5000 µg/mL (≈ 5.81 to 14.5 mM) | solubility ([3]; organic solvent or mixture, thermodynamic from solid, EtOH, RT): 5500 to 11000 µg/mL (≈ 16 to 31.9 mM) | solubility ([3]; organic solvent or mixture, thermodynamic from solid, IPA, RT): 2000 to 5000 µg/mL (≈ 5.81 to 14.5 mM) | solubility ([3]; organic solvent or mixture, thermodynamic from solid, IPAc, RT): < 1100 µg/mL | solubility ([3]; organic solvent or mixture, thermodynamic from solid, MIBK, RT): 2000 to 5000 µg/mL (≈ 5.81 to 14.5 mM) | solubility ([3]; organic solvent or mixture, thermodynamic from solid, MTBE, RT): < 1000 µg/mL | solubility ([3]; organic solvent or mixture, thermodynamic from solid, MeOH, RT): 20000 to 40000 µg/mL (≈ 58.1 to 116 mM) | solubility ([3]; organic solvent or mixture, thermodynamic from solid, NMP, RT): > 40000 µg/mL | solubility ([3]; organic solvent or mixture, thermodynamic from solid, Toluene, RT): < 1000 µg/mL | solubility ([3]; organic solvent or mixture, thermodynamic from solid, n-Heptane, RT): < 1000 µg/mL | solubility ([3]; water, thermodynamic from solid, H2O, RT): < 1000 µg/mL
SMILES: O=C(/C=C/c1ccc2c(c1)CCN2S(=O)(=O)c1ccccc1)NO [Type A, (E)-N-hydroxy-3-(1-(phenylsulfonyl)indolin-5-yl) acrylamide]
